Activity calls are given as the source filed them. No cut-off for these calls is given here.
Experiments:
Histone deacetylase 2 = Histone deacetylase 2 (Homo sapiens, UniProt Q92769)
Description: Inhibition of HDAC2 (unknown origin)

MDA-MB-231 [1] = assay: Inhibition of colony formation in human MDA-MB-231 cells at 0.1 to 0.4 uM incubated for 3 days followed by incubation in drug-free medium for 12 days by crystal violet staining based assay; format: functional, cell-based; conditions: dose 0.1-0.4 µM, time 3.0 day
[2] = target: Histone deacetylase (Homo sapiens) (UniProt Q13547+O15379+Q9UBN7+Q92769+Q9UQL6+Q8WUI4+Q9BY41+Q96DB2+P56524+Q9UKV0+Q969S8); assay: Inhibition of HDAC in human MDA-MB-231 cells assessed as increase of intracellular acetylated histone H3 level at 1 to 4 uM measured after 24 hrs by Western blot assay; format: cell-based; conditions: dose 1-4 µM
[3] = system: ALK tyrosine kinase receptor (Homo sapiens), Q9UM73 [G1202R]; assay: Potency index, ratio of repotrectinib IC50 to test compound IC50 for inhibition of ALK G1202R mutant (unknown origin)
[4] = target: Insulin receptor (Homo sapiens) (UniProt P06213); assay: Inhibition of human InsR at 1 uM
[5] = target: ALK tyrosine kinase receptor (Homo sapiens, UniProt Q9UM73); assay: Inhibition of human ALK in human SH-SY5Y cells assessed as inhibition of ALK phosphorylation at Tyr1278 residue measured after 24 hrs by Western blot assay; format: cell-based; conditions: dose 1-4 µM
[6] = Potency index, ratio of crizotinib IC50 to test compound IC50 for human SKNBE2 cells harboring wild type ALK assessed as inhibition of cell proliferation measured after 72 hrs by CCK8 assay; format: functional
NCI-H2228 = assay: Potency index, ratio of crizotinib IC50 to test compound IC50 for human NCI-H2228 cells harboring EML4/ALK […] assessed as inhibition of cell proliferation measured after 72 hrs by CCK8 assay; format: functional
SH-SY5Y [7] = assay: Cell cycle arrest in human SH-SY5Y cells assessed as accumulation of cells at S phase at 4 uM measured after 24 hrs by PI staining based flowcytometry method (reference value: 27.69%); format: functional
SH-SY5Y [8] = assay: Potency index, ratio of ceritinib IC50 to test compound IC50 for human SH-SY5Y cells harboring ALK F1174L mutant assessed as inhibition of cell proliferation measured after 72 hrs by CCK8 assay; format: functional
SH-SY5Y [9] = assay: Inhibition of colony formation in human SH-SY5Y cells at 0.1 to 0.4 uM incubated for 3 days followed by incubation in drug-free medium for 12 days by crystal violet staining based assay; format: functional, cell-based; conditions: dose 0.1-0.4 µM, time 3.0 day
Homo sapiens [10] = species: Homo sapiens; assay: Inhibition of human Aurora kinase at 1 uM
MDA-MB-231 [11] = assay: Induction of apoptosis in human MDA-MB-231 cells assessed as viable cells at 2 uM measured after 24 hrs by Annexin V-FITC/PI staining based flowcytometry (reference value: 93.14%); format: functional; conditions: read-out: Activity
Homo sapiens [12] = species: Homo sapiens; assay: Inhibition of human FLT at 1 uM
SH-SY5Y [13] = assay: Induction of apoptosis in human SH-SY5Y cells assessed as early apoptotic cells at 1 uM measured after 24 hrs by Annexin V-FITC/PI staining based flowcytometry (reference value: 0.82%); format: functional
Histone deacetylase 1 = Histone deacetylase 1 (Homo sapiens, UniProt Q13547); assay: biochemical
Description: Inhibition of recombinant human C-terminal His/FLAG-tagged HDAC1 (1 to 482 residues) expressed in Sf9 insect cells using Ac-peptide-AMC as substrate preincubated for 15 mins followed by addition of substrate and trypsin measured by flourescence assay

SH-SY5Y [14] = assay: Induction of apoptosis in human SH-SY5Y cells assessed as late apoptotic cells at 1 uM measured after 24 hrs by Annexin V-FITC/PI staining based flowcytometry (reference value: 14.32%); format: functional
SH-SY5Y [15] = assay: Induction of apoptosis in human SH-SY5Y cells assessed as viable cells at 2 uM measured after 24 hrs by Annexin V-FITC/PI staining based flowcytometry (reference value: 77.05%); format: functional; conditions: read-out: Activity
[16] = Half life in Sprague-Dawley rat at 1 mg/kg, iv measured for 12 hrs by LC-MS/MS analysis; format: ADME, organism-based; conditions: in vivo
SH-SY5Y [17] = assay: Induction of apoptosis in human SH-SY5Y cells assessed as viable cells at 4 uM measured after 24 hrs by Annexin V-FITC/PI staining based flowcytometry (reference value: 77.05%); format: functional; conditions: read-out: Activity

Sequence of Histone deacetylase 2 (Q92769 whole entry): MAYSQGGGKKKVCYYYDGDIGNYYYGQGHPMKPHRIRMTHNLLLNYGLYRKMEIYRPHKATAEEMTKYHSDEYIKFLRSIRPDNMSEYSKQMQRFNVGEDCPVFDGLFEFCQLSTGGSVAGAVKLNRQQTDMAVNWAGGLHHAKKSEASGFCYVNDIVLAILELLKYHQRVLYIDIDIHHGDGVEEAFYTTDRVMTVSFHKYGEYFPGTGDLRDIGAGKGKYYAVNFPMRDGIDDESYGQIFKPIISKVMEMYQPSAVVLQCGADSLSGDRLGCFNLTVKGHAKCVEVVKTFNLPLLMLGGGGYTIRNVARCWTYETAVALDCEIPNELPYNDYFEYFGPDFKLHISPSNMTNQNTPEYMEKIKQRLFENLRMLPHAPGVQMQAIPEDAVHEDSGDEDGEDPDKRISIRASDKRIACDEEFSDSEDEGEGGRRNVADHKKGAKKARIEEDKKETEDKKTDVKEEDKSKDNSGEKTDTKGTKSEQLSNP
Sequence of Histone deacetylase 1 (Q13547 whole entry): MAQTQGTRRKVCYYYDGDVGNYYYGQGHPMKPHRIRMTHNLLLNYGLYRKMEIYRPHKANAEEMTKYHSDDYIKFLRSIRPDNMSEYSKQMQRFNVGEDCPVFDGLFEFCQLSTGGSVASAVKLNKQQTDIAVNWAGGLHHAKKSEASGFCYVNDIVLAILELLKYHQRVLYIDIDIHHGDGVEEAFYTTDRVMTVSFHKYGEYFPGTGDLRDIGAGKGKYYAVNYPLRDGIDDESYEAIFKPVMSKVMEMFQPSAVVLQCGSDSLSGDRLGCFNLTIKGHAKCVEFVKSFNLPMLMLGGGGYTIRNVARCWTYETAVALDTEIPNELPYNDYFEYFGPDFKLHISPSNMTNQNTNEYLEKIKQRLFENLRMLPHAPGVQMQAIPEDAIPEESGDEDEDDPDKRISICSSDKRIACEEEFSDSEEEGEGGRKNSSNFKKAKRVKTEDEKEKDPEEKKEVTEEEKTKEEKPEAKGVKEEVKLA
Sequence of ALK tyrosine kinase receptor (Homo sapiens), Q9UM73 [G1202R] (Q9UM73 whole entry G1202R): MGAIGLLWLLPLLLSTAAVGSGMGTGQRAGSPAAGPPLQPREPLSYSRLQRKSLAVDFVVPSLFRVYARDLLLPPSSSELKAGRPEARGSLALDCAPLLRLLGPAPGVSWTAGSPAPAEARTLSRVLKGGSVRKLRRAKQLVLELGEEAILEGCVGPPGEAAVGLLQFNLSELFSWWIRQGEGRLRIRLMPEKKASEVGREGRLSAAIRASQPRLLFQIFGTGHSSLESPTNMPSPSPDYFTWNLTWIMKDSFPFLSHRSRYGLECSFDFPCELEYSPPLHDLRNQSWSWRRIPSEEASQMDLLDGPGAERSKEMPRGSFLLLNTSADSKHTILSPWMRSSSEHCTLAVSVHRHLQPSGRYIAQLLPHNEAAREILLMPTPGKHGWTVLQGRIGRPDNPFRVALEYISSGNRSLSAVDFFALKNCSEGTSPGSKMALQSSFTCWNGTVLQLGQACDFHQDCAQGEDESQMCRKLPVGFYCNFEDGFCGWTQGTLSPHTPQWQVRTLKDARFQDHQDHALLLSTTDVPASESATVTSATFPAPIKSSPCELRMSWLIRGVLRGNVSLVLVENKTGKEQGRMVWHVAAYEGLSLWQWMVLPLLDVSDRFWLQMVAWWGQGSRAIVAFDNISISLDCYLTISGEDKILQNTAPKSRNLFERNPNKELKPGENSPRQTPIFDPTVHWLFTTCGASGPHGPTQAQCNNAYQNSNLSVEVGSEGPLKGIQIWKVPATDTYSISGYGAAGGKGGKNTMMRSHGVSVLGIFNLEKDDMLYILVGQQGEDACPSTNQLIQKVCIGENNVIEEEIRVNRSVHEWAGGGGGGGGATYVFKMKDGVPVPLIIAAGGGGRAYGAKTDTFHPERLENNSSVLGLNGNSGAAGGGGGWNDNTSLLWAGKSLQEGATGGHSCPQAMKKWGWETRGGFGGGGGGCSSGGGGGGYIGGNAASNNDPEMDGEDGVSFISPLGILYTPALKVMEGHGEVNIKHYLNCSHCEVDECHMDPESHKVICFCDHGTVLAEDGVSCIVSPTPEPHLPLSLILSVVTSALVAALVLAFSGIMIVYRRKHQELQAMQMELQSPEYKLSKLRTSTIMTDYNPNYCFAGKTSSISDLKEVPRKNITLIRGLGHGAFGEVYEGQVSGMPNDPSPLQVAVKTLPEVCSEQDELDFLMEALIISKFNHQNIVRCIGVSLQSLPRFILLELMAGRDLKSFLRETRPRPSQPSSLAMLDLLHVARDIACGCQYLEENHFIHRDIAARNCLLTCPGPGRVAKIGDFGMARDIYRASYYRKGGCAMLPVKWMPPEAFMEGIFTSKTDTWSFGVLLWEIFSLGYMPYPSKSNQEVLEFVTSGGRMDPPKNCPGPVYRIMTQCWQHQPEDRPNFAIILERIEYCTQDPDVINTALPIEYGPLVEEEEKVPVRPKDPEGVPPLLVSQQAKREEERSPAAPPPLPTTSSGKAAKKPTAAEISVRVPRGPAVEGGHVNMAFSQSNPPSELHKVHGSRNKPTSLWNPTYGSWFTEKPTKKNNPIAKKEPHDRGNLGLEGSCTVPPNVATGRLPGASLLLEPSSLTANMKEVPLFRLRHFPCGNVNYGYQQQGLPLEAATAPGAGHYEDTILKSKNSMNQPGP
Sequence of ALK tyrosine kinase receptor (Q9UM73 19-1620 limits assumed): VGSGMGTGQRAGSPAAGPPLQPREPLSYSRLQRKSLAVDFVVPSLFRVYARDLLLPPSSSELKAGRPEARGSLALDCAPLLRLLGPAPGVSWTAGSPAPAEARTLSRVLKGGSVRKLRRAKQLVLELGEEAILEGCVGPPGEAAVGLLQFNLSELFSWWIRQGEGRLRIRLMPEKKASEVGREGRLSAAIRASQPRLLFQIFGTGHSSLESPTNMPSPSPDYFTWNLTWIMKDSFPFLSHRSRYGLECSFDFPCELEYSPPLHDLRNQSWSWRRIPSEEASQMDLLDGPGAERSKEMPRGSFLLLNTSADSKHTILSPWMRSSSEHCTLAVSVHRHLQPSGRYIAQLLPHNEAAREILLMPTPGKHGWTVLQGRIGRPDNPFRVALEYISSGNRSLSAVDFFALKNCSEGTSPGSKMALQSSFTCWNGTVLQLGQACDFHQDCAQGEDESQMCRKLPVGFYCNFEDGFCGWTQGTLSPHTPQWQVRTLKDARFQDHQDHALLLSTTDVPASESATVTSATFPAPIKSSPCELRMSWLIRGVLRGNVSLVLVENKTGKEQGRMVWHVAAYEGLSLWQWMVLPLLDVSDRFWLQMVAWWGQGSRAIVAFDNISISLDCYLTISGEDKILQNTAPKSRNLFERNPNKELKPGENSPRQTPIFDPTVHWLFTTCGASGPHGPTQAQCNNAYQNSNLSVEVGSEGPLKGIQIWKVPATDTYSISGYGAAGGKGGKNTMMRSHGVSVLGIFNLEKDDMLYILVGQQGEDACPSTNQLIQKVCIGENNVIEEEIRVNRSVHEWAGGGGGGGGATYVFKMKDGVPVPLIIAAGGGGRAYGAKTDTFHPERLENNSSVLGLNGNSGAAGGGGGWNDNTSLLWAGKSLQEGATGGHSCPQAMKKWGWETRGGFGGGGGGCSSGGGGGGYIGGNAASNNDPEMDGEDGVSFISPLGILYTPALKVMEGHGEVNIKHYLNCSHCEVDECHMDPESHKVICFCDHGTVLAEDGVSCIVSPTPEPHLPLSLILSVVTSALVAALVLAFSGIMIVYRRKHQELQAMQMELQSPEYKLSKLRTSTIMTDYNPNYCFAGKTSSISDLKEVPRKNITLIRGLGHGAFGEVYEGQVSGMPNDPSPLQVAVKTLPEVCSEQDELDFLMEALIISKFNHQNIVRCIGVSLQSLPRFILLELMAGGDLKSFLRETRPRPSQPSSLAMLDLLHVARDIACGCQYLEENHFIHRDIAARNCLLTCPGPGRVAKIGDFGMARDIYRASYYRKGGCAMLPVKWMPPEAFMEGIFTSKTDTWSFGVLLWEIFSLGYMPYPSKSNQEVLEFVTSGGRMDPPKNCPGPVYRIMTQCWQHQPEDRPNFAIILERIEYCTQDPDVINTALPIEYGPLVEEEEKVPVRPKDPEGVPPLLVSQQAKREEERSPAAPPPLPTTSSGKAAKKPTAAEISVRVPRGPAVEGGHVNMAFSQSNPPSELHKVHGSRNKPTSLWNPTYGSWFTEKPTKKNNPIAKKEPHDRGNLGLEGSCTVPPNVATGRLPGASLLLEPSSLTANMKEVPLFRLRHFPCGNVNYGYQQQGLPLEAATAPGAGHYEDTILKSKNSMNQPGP

## CC(C)S(=O)(=O)c1ccccc1Nc1nc(Nc2ccc(NC(=O)CCCCCCC(=O)NO)cc2)ncc1Cl
Histone deacetylase 2
  IC50: 9.3 nM
MDA-MB-231 [1]
  inhibition: Active
[2]
  inhibition: Active
[3]
  Ratio IC50: 10
[4]
  inhibition: Active
[5]
  inhibition: Dose-Dependent Effect
[6]
  Ratio IC50: 3
NCI-H2228
  Ratio IC50: 3
SH-SY5Y [7]
  Activity: 7.55%
SH-SY5Y [8]
  Ratio IC50: 3
SH-SY5Y [9]
  inhibition: Active
Homo sapiens [10]
  inhibition: 95%
MDA-MB-231 [11]
  viability at 2 µM: 85.1%
Homo sapiens [12]
  inhibition: Active
SH-SY5Y [13]
  Activity: 1.21%
Histone deacetylase 1
  IC50: 7.9 nM
SH-SY5Y [14]
  Activity: 21.05%
SH-SY5Y [15]
  viability at 2 µM: 58.6%
[16]
  half-life: 25.2 min
SH-SY5Y [17]
  viability at 4 µM: 38.3%

Source: ChEMBL document CHEMBL4828709, “Discovery of 2,4-pyrimidinediamine derivatives as potent dual inhibitors of ALK and HDAC” (Eur J Med Chem, 2021)
